Literature values as cited in patent US20050266081A1, “Antimicrobial silver hydrogels” (priority 2004, published 2005).

Tested on: skin cell respiration
Settings: application of 1 to 10 mg/ml of silver; probable factor in the interference of wound healing

For silver, the “inhibition of skin cell respiration” value is listed as 30%.
